Values quoted from earlier work in patent US5124083A, “3-substituted and 3,3-disubstituted 4-oxoretinoic acids and their esters” (Southern Research Institute, priority 1990, dated 1992).

Legend:
[1] = system: tracheas obtained from vitamin A-deficient hamsters; settings: value taken from Newton et al.; read-out: ED50, hamster trachea organ culture assay; cited from earlier work
mammary carcinogenesis = settings: rats; Moon et al.; cited from earlier work
certain neoplastic cells = settings: literature; cited from earlier work
[2] = system: pre-neoplastic and malignant epithelial lesions; settings: literature; cited from earlier work
[3] = Roberts and Frolik, Roberts et al.; cited from earlier work

In the case of `CC1=C(/C=C/C(C)=C/C=C/C(C)=C\C(=O)Nc2ccc(O)cc2)C(C)(C)CCC1` [13-Cis-N-(4-hydroxyphenyl)-retinamide], the EC50 [1] is listed as over 1 nM and the “Suppression of mammary carcinogenesis” value (mammary carcinogenesis) is listed as “suppress mammary carcinogenesis in rats”.
For `CC1=C(/C=C/C(C)=C/C=C/C(C)=C\C(=O)O)C(C)(C)CCC1` [13-cis-retinoic acid], the “Induction of differentiation of certain neoplastic cells to terminally differentiated cells” value (certain neoplastic cells) is given as “highly active inducers of differentiation” and the “Prophylactic effect on development of pre-neoplastic and malignant epithelial lesions” value [2] is given as “exert a prophylactic effect”.
For `CC1=C(/C=C/C(C)=C/C=C/C(C)=C/C(=O)NCCO)C(C)(C)CCC1` [All-trans-N-(2-hydroxyethyl)-retinamide], the EC50 [1] is listed as 0.1 nM.
In the case of `CC1=C(/C=C/C(C)=C/C=C/C(C)=C/C(=O)Nc2ccc(O)cc2)C(C)(C)CCC1` [All-trans-N-(4-hydroxyphenyl)-retinamide], the EC50 [1] is given as 0.3 nM and the “Suppression of mammary carcinogenesis” value (mammary carcinogenesis) is given as “suppress mammary carcinogenesis in rats”.
For `CCNC(=O)/C=C(C)/C=C/C=C(C)/C=C/C1=C(C)CCCC1(C)C` [All-trans-N-ethylretinamide], the EC50 [1] is listed as 1 nM.
In the case of `CC1=C(/C=C/C(C)=C/C=C/C(C)=C/C(=O)O)C(C)(C)CCC1=O` [all-trans-4-oxoretinoic acid], the Metabolite identity [3] is given as “one of the metabolites of all-trans-retinoic acid”.
In the case of `CC1=C(/C=C/C(C)=C/C=C/C(C)=C/C(=O)O)C(C)(C)CCC1` [all-trans-retinoic acid], the “Induction of differentiation of certain neoplastic cells to terminally differentiated cells” value (certain neoplastic cells) is listed as “highly active inducers of differentiation” and the “Prophylactic effect on development of pre-neoplastic and malignant epithelial lesions” value [2] is listed as “exert a prophylactic effect”.
